Laboratory results taken from US20090197880A1 (Genelabs Technologies, Inc., priority 2007, published 2009).

Experiment: HCV replicon assay (luciferase) in ET (Huh-lucubineo-ET) cell line
Assay type: cell-based
Conditions: Hepatitis C virus; tested at 10 μM; inhibition of replication relative to no compound control; ET replicon cells, luciferase 48-72 hours; read-out: % inhition at 10 μM

Row | Structure (SMILES) | inhibition at 10 µM [%]
1 | Cc1cc(CCc2ccc(-c3cc(Cn4cc5nc(-c6cccc(F)c6F)nc-5cn4)on3)cc2)cc(C)n1 [Compound 311, 2-(2,3-Difluoro-phenyl)-5-(3-{4-[2-(2,6-dimethyl-pyridin-4-yl)-ethyl]-phenyl}-isoxazol-5-ylmethyl)-5H-imidazo[4,5-d]pyridazine] | 96.7
2 | COCCCOc1ccc(-c2cc(Cn3cc4nc(-c5cccc(F)c5F)nc-4cn3)on2)cc1 [Compound 312, 2-(2,3-Difluoro-phenyl)-5-{3-[4-(3-methoxy-propoxy)-phenyl]-isoxazol-5-ylmethyl}-5H-imidazo[4,5-d]pyridazine] | 98.1
3 | COc1ccc(-c2cc(Cn3cc4nc(-c5cccc(F)c5F)nc-4cn3)on2)c(F)c1 [Compound 313, 2-(2,3-Difluoro-phenyl)-5-[3-(2-fluoro-4-methoxy-phenyl)-isoxazol-5-ylmethyl]-5H-imidazo[4,5-d]pyridazine] | 99.2
4 | CC(F)(F)c1ccc(-c2cc(Cn3cc4nc(-c5cccc(F)c5F)nc-4cn3)on2)cc1 [Compound 314, 5-{3-[4-(1,1-Difluoro-ethyl)-phenyl]-isoxazol-5-ylmethyl}-2-(2,3-difluoro-phenyl)-5H-imidazo[4,5-d]pyridazine] | 99.8
5 | CCCOc1cnc(-c2cc(Cn3cc4nc(-c5cccc(F)c5F)nc-4cn3)on2)cn1 [Compound 315, 2-(2,3-Difluoro-phenyl)-5-[3-(5-propoxy-pyrazin-2-yl)-isoxazol-5-ylmethyl]-5H-imidazo[4,5-d]pyridazine] | 99.3
6 | CCCC(F)(F)c1ccc(-c2cc(Cn3cc4nc(-c5cccc(F)c5F)nc-4cn3)on2)cc1 [Compound 316, 5-{3-[4-(1,1-Difluoro-butyl)-phenyl]-isoxazol-5-ylmethyl}-2-(2,3-difluoro-phenyl)-5H-imidazo[4,5-d]pyridazine] | 99.7
7 | Cc1ccc(-c2cc(Cn3cc4nc(-c5cccc(F)c5F)nc-4cn3)no2)nn1 [Compound 318, 2-(2,3-Difluoro-phenyl)-5-[5-(6-methyl-pyridazin-3-yl)-isoxazol-3-ylmethyl]-5H-imidazo[4,5-d]pyridazine] | 50
8 | Fc1cccc(-c2nc3cnn(Cc4cc(-c5ccc(OCC6CCOCC6)cc5C(F)(F)F)no4)cc-3n2)c1F [Compound 319, 2-(2,3-Difluoro-phenyl)-5-{3-[4-(tetrahydro-pyran-4-ylmethoxy)-2-trifluoromethyl-phenyl]-isoxazol-5-ylmethyl}-5H-imidazo[4,5-d]pyridazine] | 100
9 | COCCOc1ccc(-c2cc(Cn3cc4nc(-c5cccc(F)c5F)nc-4cn3)on2)c(C(F)(F)F)c1 [Compound 320, 2-(2,3-Difluoro-phenyl)-5-{3-[4-(2-methoxy-ethoxy)-2-trifluoromethyl-phenyl]-isoxazol-5-ylmethyl}-5H-imidazo[4,5-d]pyridazine] | 99.8
10 | Fc1cccc(-c2nc3cnn(Cc4cc(-c5ccc(-c6cnoc6)cc5C(F)(F)F)no4)cc-3n2)c1F [Compound 321, 2-(2,3-Difluoro-phenyl)-5-[3-(4-isoxazol-4-yl-2-trifluoromethyl-phenyl)-isoxazol-5-ylmethyl]-5H-imidazo[4,5-d]pyridazine] | 82.5
11 | Fc1cccc(-c2nc3cnn(Cc4cc(-c5ccc(-c6cn[nH]c6)cc5C(F)(F)F)no4)cc-3n2)c1F [Compound 322, 2-(2,3-Difluoro-phenyl)-5-{3-[4-(1H-pyrazol-4-yl)-2-trifluoromethyl-phenyl]-isoxazol-5-ylmethyl}-5H-imidazo[4,5-d]pyridazine] | 94.9
12 | CC(C)Cc1ccc(-c2cc(Cn3cc4nc(-c5cccc(F)c5F)nc-4cn3)on2)c(C(F)(F)F)c1 [Compound 323, 2-(2,3-Difluoro-phenyl)-5-[3-(4-isobutyl-2-trifluoromethyl-phenyl)-isoxazol-5-ylmethyl]-5H-imidazo[4,5-d]pyridazine] | 100
13 | O=C(COc1ccc(-c2cc(Cn3cc4nc(-c5cccc(F)c5F)nc-4cn3)on2)c(C(F)(F)F)c1)N1CCCCC1 [Compound 325, 2-(4-{5-[2-(2,3-Difluoro-phenyl)-imidazo[4,5-d]pyridazin-5-ylmethyl]-isoxazol-3-yl}-3-trifluoromethyl-phenoxy)-1-piperidin-1-yl-ethanone] | 8.2
14 | Fc1cccc(-c2nc3cnn(Cc4cc(-c5ccc(OCCCC(F)(F)F)cc5)no4)cc-3n2)c1F [Compound 326, 2-(2,3-Difluoro-phenyl)-5-{3-[4-(4,4,4-trifluoro-butoxy)-phenyl]-isoxazol-5-ylmethyl}-5H-imidazo[4,5-d]pyridazine] | 99.3
15 | C#CCOc1ccc(-c2cc(Cn3cc4nc(-c5cccc(F)c5F)nc-4cn3)on2)cc1 [Compound 327] | 99.7
16 | Fc1cccc(-c2nc3cnn(Cc4cc(-c5ccc(-c6nnn[nH]6)cc5)no4)cc-3n2)c1F [Compound 328, 2-(2,3-Difluoro-phenyl)-5-{3-[4-(1H-tetrazol-5-yl)-phenyl]-isoxazol-5-ylmethyl}-5H-imidazo[4,5-d]pyridazine] | 55.5
17 | Fc1cccc(-c2nc3cnn(Cc4cc(-c5ccc(OCC6CCOC6)cc5C(F)(F)F)no4)cc-3n2)c1F (stereo not shown) [Compound 329, 2-(2,3-Difluoro-phenyl)-5-{3-[4-(tetrahydro-furan-3-ylmethoxy)-2-trifluoromethyl-phenyl]-isoxazol-5-ylmethyl}-5H-imidazo[4,5-d]pyridazine] | 99.5
18 | Fc1cccc(-c2nc3cnn(Cc4cc(-c5ccc(CCCC(F)(F)F)cc5)no4)cc-3n2)c1F [Compound 330, 2-(2,3-Difluoro-phenyl)-5-{3-[4-(4,4,4-trifluoro-butyl)-phenyl]-isoxazol-5-ylmethyl}-5H-imidazo[4,5-d]pyridazine] | 99.7
19 | Fc1cccc(-c2nc3cnn(Cc4cc(-c5ccc(CCC(F)(F)F)cc5)no4)cc-3n2)c1F [Compound 331, 2-(2,3-Difluoro-phenyl)-5-{3-[4-(3,3,3-trifluoro-propyl)-phenyl]-isoxazol-5-ylmethyl}-5H-imidazo[4,5-d]pyridazine] | 99.9
20 | C[Si](C)(C)C#Cc1ccc(-c2cc(Cn3cc4nc(-c5cccc(F)c5F)nc-4cn3)on2)cc1 [Compound 332, 2-(2,3-Difluoro-phenyl)-5-[3-(4-trimethylsilanylethynyl-phenyl)-isoxazol-5-ylmethyl]-5H-imidazo[4,5-d]pyridazine] | 99
21 | CC(C)(C)C#Cc1ccc(-c2cc(Cn3cc4nc(-c5cccc(F)c5F)nc-4cn3)on2)cc1 [Compound 333, 2-(2,3-Difluoro-phenyl)-5-{3-[4-(3,3-dimethyl-but-1-ynyl)-phenyl]-isoxazol-5-ylmethyl}-5H-imidazo[4,5-d]pyridazine] | 86.4
22 | C#Cc1ccc(-c2cc(Cn3cc4nc(-c5cccc(F)c5F)nc-4cn3)on2)cc1 [Compound 334, 2-(2,3-Difluoro-phenyl)-5-[3-(4-ethynyl-phenyl)-isoxazol-5-ylmethyl]-5H-imidazo[4,5-d]pyridazine] | 99
23 | Fc1cccc(-c2nc3cnn(Cc4cc(-c5ccc(C#CC6CCCC6)cc5)no4)cc-3n2)c1F [Compound 335, 5-[3-(4-Cyclopentylethynyl-phenyl)-isoxazol-5-ylmethyl]-2-(2,3-difluoro-phenyl)-5H-imidazo[4,5-d]pyridazine] | 96.7
24 | Fc1cccc(-c2nc3cnn(Cc4cc(-c5ccc(C(F)F)cc5)no4)cc-3n2)c1F [Compound 336, 5-[3-(4-Difluoromethyl-phenyl)-isoxazol-5-ylmethyl]-2-(2,3-difluoro-phenyl)-5H-imidazo[4,5-d]pyridazine] | 99.7
25 | Fc1cccc(-c2nc3cnn(Cc4cc(-c5ccccc5)no4)cc-3n2)c1F [Compound 337, 2-(2,3-Difluoro-phenyl)-5-(3-phenyl-isoxazol-5-ylmethyl)-5H-imidazo[4,5-d]pyridazine] | 68.5
26 | C=Cc1ccc(-c2cc(Cn3cc4nc(-c5cccc(F)c5F)nc-4cn3)on2)cc1 [Compound 338, 2-(2,3-Difluoro-phenyl)-5-[3-(4-vinyl-phenyl)-isoxazol-5-ylmethyl]-5H-imidazo[4,5-d]pyridazine] | 99.9
27 | Fc1cccc(-c2nc3cnn(Cc4cc(-c5ccc(C#CC6CC6)cc5)no4)cc-3n2)c1F [Compound 339, 5-[3-(4-Cyclopropylethynyl-phenyl)-isoxazol-5-ylmethyl]-2-(2,3-difluoro-phenyl)-5H-imidazo[4,5-d]pyridazine] | 99.8
28 | Oc1ccc(-c2cc(Cn3cc4nc(-c5cccc(F)c5F)nc-4cn3)on2)c(C(F)(F)F)c1 [Compound 340, 4-{5-[2-(2,3-Difluoro-phenyl)-imidazo[4,5-d]pyridazin-5-ylmethyl]-isoxazol-3-yl}-3-trifluoromethyl-phenol] | 0.116
